Measured values as given in patent US20240245711A1, “A 19-NOR C3,3-DISUBSTITUTED C21-N-PYRAZOLYL STEROID FOR THE TREATMENT OF MAJOR DEPRESSIVE DISORDER” (Sage Therapeutics, Inc., priority 2021, published 2024).
“And” between values parts separate entries of the source, which are not always exact repeats. Equal entries are not always repeated.

Tested on: adult subjects with Major Depressive Disorder
Test: Phase 3 open-label 1-year study: HAM-D total score, response and remission
Assay type: in vivo, human
From the text: Secondary Objective: To assess the need for re-treatment with Compound (1) following initial treatment in adults with MDD currently experiencing an MDE over a 1-year period, and to assess the response of initial treatment and re-treatment(s) with Compound (1) following an initial 2-week treatment period in adults with MDD currently experiencing an MDE over a 1-year period.
Secondary Endpoints: The need for re-treatment with Compound (1) as assessed by: time to first re-treatment (Kaplan-Meier curves), number of subjects achieving the requirements for re-treatment, number of re-treatment cycles for each subject, the response of initial treatment and/or re-treatment as assessed by: change from baseline in the 17-item Hamilton Rating Scale for Depression (HAM-D) total score at the end of each 14-day treatment (initial and/or re-treatment) period, HAM-D response at the end of each 14-day treatment (initial and/or re-treatment) period, defined as a ≥50% reduction in HAM-D score from baseline, HAM-D remission at the end of each 14-day treatment (initial and/or re-treatment) period, defined as HAM-D total score≤7, Clinical Global Impression-Improvement (CGI-I) response, defined as “much improved” or “very much improved”, at the end of each 14-day treatment (initial and/or re-treatment) period, change from baseline in Clinical Global Impression-Severity (CGI-S) score at the end of each 14-day treatment (initial and/or re-treatment) period.
Study Population: Subjects were 18-75 years old, diagnosed with major depressive disorder (MDD) with a MADRS total score of ≥28 and a HAM-D total score of ≥20 at Screening and Day 1 (prior to dosing).
Treatment Groups: The 30 mg and 50 mg dose groups were separated by time of enrollment. The study is comprised of two cohorts: one with Compound (1) 30 mg as a starting dose (30 mg Cohort: n=725), an initial cohort with Compound (1) 50 mg as a starting dose (50 mg Cohort: n=199). A patient receiving Compound (1) 30 mg could be dose reduced to 20 mg and patients receiving Compound (1) 50 mg could be dose reduced to 40 mg (based on tolerability). In all cohorts, Compound (1) is self-administered by patients as an oral therapy once nightly with food for 14 days.
Eligible subjects were given Compound (1)—to be taken at home in the evening with meal.
The cohorts pertaining to the different doses that the subjects received were defined as following: • 50 mg cohort: This cohort includes subjects who have initiated treatment with 50 mg and received re-treatment with 50 mg only. • 30 mg cohort: This cohort includes subjects who have initiated treatment with 30 mg regardless of the dose they have received in re-treatments. • Low dose cohort: This cohort includes subjects who have initiated treatment with 30 mg and received re-treatment with 30 mg only. • Dose switch cohort: This cohort includes subjects who have received initial treatment with 30 mg and at least one subsequent re-treatment with 50 mg. • Study Period X: starts on the date of the first dose of Compound (1) in cycle X and goes up to one day prior to the first dose of the next cycle. In some embodiments, X is any number from 1 to 5. • Treatment Period X: starts on the date of the first dose of Compound (1) in cycle X and goes up to one day after the last dose in cycle X. In some embodiments, X is any number from 1 to 5. • Treatment Cycle X: starts on the date of the first dose of Compound (1) in cycle X and goes up to 14 days after the last dose in cycle X. The treatment cycles may be denoted as C1-C5. • Observation period X: starts the day after Treatment Cycle X ends and goes up to one day prior to the start of next treatment cycle. In some embodiments, X is any number from 1 to 5.
Analysis Sets: The safety set was defined as all subjects who were administered study drug. The period-specific safety set includes subjects in the safety set who were administered study drug in the corresponding treatment cycle. […]

[1] = baseline HAM-D score ≥24, Study Period 1, 50 mg Cohort (N = 127), Day 28
[2] = baseline HAM-D score ≥24, Study Period 1, 50 mg Cohort (N = 127), Day 70
[3] = baseline HAM-D score ≥24, Study Period 1, 50 mg Cohort (N = 127), Day 126
[4] = baseline HAM-D score ≥26, Study Period 1, 30 mg Cohort (N = 327), Day 8
[5] = baseline HAM-D score ≥26, Study Period 1, 30 mg Cohort (N = 327), Day 15
[6] = baseline HAM-D score ≥26, Study Period 1, 30 mg Cohort (N = 327), Day 28
[7] = baseline HAM-D score ≥26, Study Period 1, 30 mg Cohort (N = 327), Day 70
[8] = baseline HAM-D score ≥26, Study Period 1, 30 mg Cohort (N = 327), Day 126
[9] = baseline HAM-D score ≥26, Study Period 1, 50 mg Cohort (N = 85), Day 8
[10] = baseline HAM-D score ≥26, Study Period 1, 50 mg Cohort (N = 85), Day 15
[11] = baseline HAM-D score ≥26, Study Period 1, 50 mg Cohort (N = 85), Day 28
[12] = baseline HAM-D score ≥26, Study Period 1, 50 mg Cohort (N = 85), Day 70
[13] = baseline HAM-D score ≥26, Study Period 1, 50 mg Cohort (N = 85), Day 126

SMILES: C[C@@]1(O)CC[C@H]2[C@H](CC[C@@H]3[C@@H]2CC[C@]2(C)[C@@H](C(=O)Cn4cc(C#N)cn4)CC[C@@H]32)C1 [Compound (1), 1-(2-((3R,5R,8R,9R,10S,13S,14S,17S)-3-hydroxy-3,13-dimethylhexadecahydro-1H-cyclopenta[a]phenanthren-17-yl)-2-oxoethyl)-1H-pyrazole-4-carbonitrile]
- HAM-D Response [1]: 74/120 (61.7%)
- HAM-D total score, Mean % CFB ± SD [1]: −58.0 ± 25.97%
- HAM-D total score, Mean CFB ± SD [1]: −15.7 ± 7.17
- HAM-D Remission [2]: 26/79 (32.9%)
- HAM-D Response [2]: 43/79 (54.4%)
- HAM-D total score, Mean % CFB ± SD [2]: −53.0 ± 28.53%
- HAM-D total score, Mean CFB ± SD [2]: −14.4 ± 7.93
- HAM-D Remission [3]: 13/17 (76.5%)
- HAM-D Response [3]: 14/17 (82.4%)
- HAM-D total score, Mean % CFB ± SD [3]: −74.8 ± 27.94%
- HAM-D total score, Mean CFB ± SD [3]: −19.9 ± 8.10
- HAM-D Response [4]: 138/319 (43.3%)
- HAM-D total score, Mean % CFB ± SD [4]: −43.7 ± 25.84%
- HAM-D total score, Mean CFB ± SD [4]: −12.6 ± 7.44
- HAM-D Response [5]: 220 (71.4%) and 220/308 (71.4%)
- HAM-D total score, Mean % CFB ± SD [5]: −60.6 ± 26.28%
- HAM-D total score, Mean CFB ± SD [5]: −17.6 ± 7.77
- HAM-D Response [6]: 184/305 (60.3%)
- HAM-D total score, Mean % CFB ± SD [6]: −55.6 ± 28.46%
- HAM-D total score, Mean CFB ± SD [6]: −16.2 ± 8.48
- HAM-D Response [7]: 87/170 (51.2%)
- HAM-D total score, Mean % CFB ± SD [7]: −49.8 ± 32.15%
- HAM-D total score, Mean CFB ± SD [7]: −14.7 ± 9.65
- HAM-D Response [8]: 60/82 (73.2%)
- HAM-D total score, Mean % CFB ± SD [8]: −65.6 ± 28.15%
- HAM-D total score, Mean CFB ± SD [8]: −19.1 ± 8.11
- HAM-D Remission [9]: 13/82 (15.9%)
- HAM-D Response [9]: 43/82 (52.4%)
- HAM-D total score, Mean % CFB ± SD [9]: −49.6 ± 21.15%
- HAM-D total score, Mean CFB ± SD [9]: −14.0 ± 6.05
- HAM-D Remission [10]: 27 (33.8%) and 27/80 (33.8%)
- HAM-D Response [10]: 64 (80.0%) and 64/80 (80.0%)
- HAM-D total score, Mean % CFB ± SD [10]: −64.3 ± 20.17%
- HAM-D total score, Mean CFB ± SD [10]: −18.2 ± 5.89
- HAM-D Remission [11]: 26/80 (32.5%)
- HAM-D Response [11]: 51/80 (63.8%)
- HAM-D total score, Mean % CFB ± SD [11]: −58.5 ± 24.24%
- HAM-D total score, Mean CFB ± SD [11]: −16.6 ± 7.05
- HAM-D Remission [12]: 18/56 (32.1%)
- HAM-D Response [12]: 30/56 (53.6%)
- HAM-D total score, Mean % CFB ± SD [12]: −52.9 ± 28.48%
- HAM-D total score, Mean CFB ± SD [12]: −15.1 ± 8.23
- HAM-D Remission [13]: 8/10 (80%)
- HAM-D Response [13]: 8/10 (80%)
- HAM-D total score, Mean % CFB ± SD [13]: −74.2 ± 34.34%
- HAM-D total score, Mean CFB ± SD [13]: −21.0 ± 10.12
- HAM-D Remission (baseline HAM-D score ≥26, Study Period 1, Table 3: 30 mg Cohort (N = 327), Table 19 head: Low Dose Cohort (N = 327), Day 15): 113 (36.7%) and 113/308 (36.7%)
- HAM-D Remission (baseline HAM-D score ≥26, Study Period 1, Table 19: Low Dose Cohort (N = 327), Day 8): 49/319 (15.4%)
- HAM-D Remission (baseline HAM-D score ≥26, Study Period 1, Table 19: Low Dose Cohort (N = 327), Day 28): 94/305 (30.8%)
- HAM-D Remission (baseline HAM-D score ≥26, Study Period 1, Table 19: Low Dose Cohort (N = 327), Day 70): 43/170 (25.3%)
- HAM-D Remission (baseline HAM-D score ≥26, Study Period 1, Table 19: Low Dose Cohort (N = 327), Day 126): 37/82 (45.1%)
